Holding throughout (assay type): in vivo
For test [1], the system named is Alopecurus myosuroides (ALOMY). The test is described as follows: Pre-emergence herbicidal activity, glasshouse pot test. As to conditions: rate 500 g/ha, evaluated after 20 days; for pest or weed control at 500 g/ha: Alopecurus myosuroides, 480 h, read-out: Pre-emergence activity, ALOMY (100=total damage to plant; 0=no damage to plant). An outline of the steps: (§1)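 Pots, sterilised standard soil; sown, then sprayed at day 1 pre-emergence. Spray: technical AI in acetone + formulation (10.6% Emulsogen EL, 42.2% NMP, 42.2% DPGME, 0.2% X-77), diluted in water. Greenhouse, optimum conditions; scored at 20 d, 0–100 scale.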

For test [2], the system named is Avena fatua (AVEFA). The description is as above. The conditions noted are these: rate 500 g/ha, evaluated after 20 days; for pest or weed control at 500 g/ha: Avena fatua, 480 h, read-out: Pre-emergence activity, AVEFA (100=total damage to plant; 0=no damage to plant). The method in brief: as §1
Test [3] has as its system Digitaria sanguinalis (DIGSA). The test is described as above. As to conditions: rate 500 g/ha, evaluated after 20 days; for pest or weed control at 500 g/ha: Digitaria sanguinalis, 480 h, read-out: Pre-emergence activity, DIGSA (100=total damage to plant; 0=no damage to plant). An outline of the steps: as §1
The test system of test [4] is Echinochloa crus-galli (ECHCG). Described as above. The conditions noted are these: rate 500 g/ha, evaluated after 20 days; for pest or weed control at 500 g/ha: Echinochloa crus-galli, 480 h, read-out: Pre-emergence activity, ECHCG (100=total damage to plant; 0=no damage to plant). An outline of the steps:
as §1

Test [5] deals with Lolium perenne (LOLPE). The description is as above. As to conditions: rate 500 g/ha, evaluated after 20 days; for pest or weed control at 500 g/ha: Lolium perenne, 480 h, read-out: Pre-emergence activity, LOLPE (100=total damage to plant; 0=no damage to plant). An outline of the steps: as §1
Test [6] relates to Setaria faberi (SETFA). The description is as above. The conditions noted are these: rate 500 g/ha, evaluated after 20 days; for pest or weed control at 500 g/ha: Setaria faberi, 480 h, read-out: Pre-emergence activity, SETFA (100=total damage to plant; 0=no damage to plant). The method in brief: as §1
The subject of test [7] is Alopecurus myosuroides (ALOMY). The test is described as follows: Post-emergence herbicidal activity, glasshouse pot test. As to conditions: evaluated after 14 or 15 days; for pest or weed control at 500 g/ha / pest or weed control at 125 g/ha: Alopecurus myosuroides, read-out: Post-emergence activity, ALOMY (100=total damage to plant; 0=no damage to plant); for pest or weed control at 125 g/ha: rate 125 g/ha. An outline of the steps:
(§2)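 Foliar application to ten-day-old pot-grown seedlings; formulation: acetone plus solvent/surfactant blend (Emulsogen EL, NMP, DPGME, X-77), diluted in water. Scoring 14/15 d post-spray, 0–100% damage.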

Test [8] relates to Avena fatua (AVEFA). Described as above. As to conditions: evaluated after 14 or 15 days; for pest or weed control at 500 g/ha / pest or weed control at 125 g/ha: Avena fatua, read-out: Post-emergence activity, AVEFA (100=total damage to plant; 0=no damage to plant); for pest or weed control at 125 g/ha: rate 125 g/ha. The method in brief: as §2
Test [9] relates to Digitaria sanguinalis (DIGSA). The description is as above. As to conditions: evaluated after 14 or 15 days; for pest or weed control at 500 g/ha / pest or weed control at 125 g/ha: Digitaria sanguinalis, read-out: Post-emergence activity, DIGSA (100=total damage to plant; 0=no damage to plant); for pest or weed control at 125 g/ha: rate 125 g/ha. An outline of the steps: as §2

Test [10] relates to Echinochloa crus-galli (ECHCG). The test is described as above. As to conditions: evaluated after 14 or 15 days; for pest or weed control at 500 g/ha / pest or weed control at 125 g/ha: Echinochloa crus-galli, read-out: Post-emergence activity, ECHCG (100=total damage to plant; 0=no damage to plant); for pest or weed control at 125 g/ha: rate 125 g/ha. An outline of the steps:
as §2

Test [11] relates to Lolium perenne (LOLPE). Described as above. As to conditions: evaluated after 14 or 15 days; for pest or weed control at 500 g/ha / pest or weed control at 125 g/ha: Lolium perenne, read-out: Post-emergence activity, LOLPE (100=total damage to plant; 0=no damage to plant); for pest or weed control at 125 g/ha: rate 125 g/ha. An outline of the steps:
as §2

For test [12], the system named is Setaria faberi (SETFA). Described as above. The conditions noted are these: evaluated after 14 or 15 days; for pest or weed control at 500 g/ha / pest or weed control at 125 g/ha: Setaria faberi, read-out: Post-emergence activity, SETFA (100=total damage to plant; 0=no damage to plant); for pest or weed control at 125 g/ha: rate 125 g/ha. An outline of the steps:
as §2

Consider nine compounds from patent US8084649B2, “Herbicides” (Syngenta Crop Protection, inc., priority 2007, dated 2011).

Take `CCc1cc(C)cc(CC)c1C1=C(OC(=O)C(C)(C)C)CC2(CCOCC2)CC1=O` [Compound P4]: the pest or weed control at 500 g/ha turned out to be 100% in test [1]; 100% in the test with Avena fatua (AVEFA) [2]; 100% in test [3]; 90% in test [4]; 100% in the test on Lolium perenne (LOLPE) [5]; 100% in the test with Setaria faberi (SETFA) [6]. For the same compound, the pest or weed control at 500 g/ha worked out at 100% in test [7] (rate 500 g/ha); 90% in the test with Avena fatua (AVEFA) [8] (rate 500 g/ha); 80% in test [9] (rate 500 g/ha); 100% in [10] (rate 500 g/ha); 100% with Lolium perenne (LOLPE) [11] (rate 500 g/ha); 80% with Setaria faberi (SETFA) [12] (rate 500 g/ha).

`CCSC(C)CC1CC(=O)C(c2c(C)cc(C)cc2CC)=C(O)C1` (stereo not drawn) [Compound T1]: the pest or weed control at 500 g/ha in [1] came to 60%; with Avena fatua (AVEFA) [2], 30%; in [3], 70%; in test [4], 100%; in the test with Lolium perenne (LOLPE) [5], 70%; in the test with Setaria faberi (SETFA) [6], 70%. For the same compound, the pest or weed control at 500 g/ha in test [7] (rate 500 g/ha) was 70%; with Avena fatua (AVEFA) [8] (rate 500 g/ha), 70%; in test [9] (rate 500 g/ha) it was 90%; in [10] (rate 500 g/ha), 90%; in the test on Lolium perenne (LOLPE) [11] (rate 500 g/ha), 70%; in the test with Setaria faberi (SETFA) [12] (rate 500 g/ha), 80%.

On to `CCc1cc(C)cc(CC)c1C1=C(O)CC(C(C)(C)SC)CC1=O` (stereo not drawn) [Compound T20], for which the pest or weed control at 500 g/ha (in test [1]; in the test with Avena fatua (AVEFA) [2]; in test [3]; in test [4]; in the test with Lolium perenne (LOLPE) [5]; in the test on Setaria faberi (SETFA) [6]) was 100% throughout. Further, the pest or weed control at 500 g/ha (in test [7] (rate 500 g/ha); in the test on Avena fatua (AVEFA) [8] (rate 500 g/ha); in test [9] (rate 500 g/ha); in [10] (rate 500 g/ha); in the test with Lolium perenne (LOLPE) [11] (rate 500 g/ha); with Setaria faberi (SETFA) [12] (rate 500 g/ha)) was 100% throughout.

For the compound `Cc1cc(C)c(C2=C(O)CC3(CCOCC3)CC2=O)c(C)c1` [Compound T26], the pest or weed control at 500 g/ha turned out to be 90% in [1]; 20% in the test on Avena fatua (AVEFA) [2]; 100% in test [3]; 100% in [4]; 90% in the test with Lolium perenne (LOLPE) [5]; 70% in the test with Setaria faberi (SETFA) [6]. For the same compound, the pest or weed control at 500 g/ha in [7] (rate 500 g/ha) is 60%; in the test with Avena fatua (AVEFA) [8] (rate 500 g/ha) it was 10%; in test [9] (rate 500 g/ha), 80%; in test [10] (rate 500 g/ha), 100%; in the test with Lolium perenne (LOLPE) [11] (rate 500 g/ha), 50%; in the test with Setaria faberi (SETFA) [12] (rate 500 g/ha) it was 80%.

Turning to `CCc1cc(C)cc(CC)c1C1=C(OC(=O)C2CCCCC2)CC2(CCOCC2)CC1=O` [Compound P12], the pest or weed control at 500 g/ha (in test [1]; in the test on Avena fatua (AVEFA) [2]; in test [3]; in [4]; with Lolium perenne (LOLPE) [5]; in the test on Setaria faberi (SETFA) [6]) was 100% each time. Moreover, the pest or weed control at 125 g/ha in [7] came to 80%; with Avena fatua (AVEFA) [8] it was 90%; in test [9] it was 90%; in test [10] it was 100%; with Lolium perenne (LOLPE) [11] it was 100%; in the test on Setaria faberi (SETFA) [12], 90%.

`CCc1cc(C)cc(CC)c1C1=C(O)CC(CCS(C)(=O)=O)CC1=O` (stereo not drawn) [Compound T31]: in test [1], the “Pre-emergence activity, ALOMY (100=total damage to plant; 0=no damage to plant)” value worked out at 80. The “Pre-emergence activity, AVEFA (100=total damage to plant; 0=no damage to plant)” value in the test on Avena fatua (AVEFA) [2] is 80. The “Pre-emergence activity, DIGSA (100=total damage to plant; 0=no damage to plant)” value in [3] is reported as 100. Moreover, in [4], the “Pre-emergence activity, ECHCG (100=total damage to plant; 0=no damage to plant)” value is 100. Moreover, the “Pre-emergence activity, LOLPE (100=total damage to plant; 0=no damage to plant)” value in the test with Lolium perenne (LOLPE) [5] is 100. Besides, the “Pre-emergence activity, SETFA (100=total damage to plant; 0=no damage to plant)” value in the test with Setaria faberi (SETFA) [6] is given as 100. The “Post-emergence activity, ALOMY (100=total damage to plant; 0=no damage to plant)” value in [7] (rate 500 g/ha) worked out at 80. Besides, the “Post-emergence activity, AVEFA (100=total damage to plant; 0=no damage to plant)” value in the test on Avena fatua (AVEFA) [8] (rate 500 g/ha) came to 60. Besides, the “Post-emergence activity, DIGSA (100=total damage to plant; 0=no damage to plant)” value in test [9] (rate 500 g/ha) is given as 100. For the same compound, the “Post-emergence activity, ECHCG (100=total damage to plant; 0=no damage to plant)” value in test [10] (rate 500 g/ha) is reported as 100. Besides, the “Post-emergence activity, LOLPE (100=total damage to plant; 0=no damage to plant)” value with Lolium perenne (LOLPE) [11] (rate 500 g/ha) was 90. For the same compound, in the test on Setaria faberi (SETFA) [12] (rate 500 g/ha), the “Post-emergence activity, SETFA (100=total damage to plant; 0=no damage to plant)” value is listed as 100.

Turning to `CSC(C)CC1CC(=O)C(c2c(C)cc(C)cc2C)=C(O)C1` (stereo not drawn) [Compound T18], the pest or weed control at 500 g/ha in [1] is 20%; in the test with Avena fatua (AVEFA) [2] it was 10%; in test [3], 60%; in test [4], 70%; in the test on Lolium perenne (LOLPE) [5], 10%; in the test with Setaria faberi (SETFA) [6], 40%. Also, the pest or weed control at 500 g/ha in test [7] (rate 500 g/ha) is 60%; in the test with Avena fatua (AVEFA) [8] (rate 500 g/ha) it was 60%; in test [9] (rate 500 g/ha), 80%; in [10] (rate 500 g/ha), 70%; with Lolium perenne (LOLPE) [11] (rate 500 g/ha), 70%; with Setaria faberi (SETFA) [12] (rate 500 g/ha), 80%.

With `CCc1cc(C)cc(CC)c1C1=C(OC(=O)OCC(C)C)CC2(CCOCC2)CC1=O` [Compound P20], the pest or weed control at 500 g/ha (in test [1]; with Avena fatua (AVEFA) [2]; in [3]; in test [4]; with Lolium perenne (LOLPE) [5]; in the test with Setaria faberi (SETFA) [6]) was 100% in each case. Besides, the pest or weed control at 125 g/ha in [7] was 90%; with Avena fatua (AVEFA) [8], 100%; in [9], 70%; in test [10] it was 100%; in the test with Lolium perenne (LOLPE) [11] it was 90%; in the test with Setaria faberi (SETFA) [12], 70%.

For the compound `C#CCOC(=O)OC1=C(c2c(CC)cc(C)cc2CC)C(=O)CC2(CCOCC2)C1` [Compound P22], the pest or weed control at 500 g/ha (in test [1]; with Avena fatua (AVEFA) [2]; in [3]; in test [4]; with Lolium perenne (LOLPE) [5]; in the test on Setaria faberi (SETFA) [6]) was 100% in each case. The pest or weed control at 125 g/ha was determined as 90% in [7]; 100% with Avena fatua (AVEFA) [8]; 100% in [9]; 90% in test [10]; 90% with Lolium perenne (LOLPE) [11]; 90% with Setaria faberi (SETFA) [12].
